Assays:
[1] = system: IL-2 stimulated STAT5 phosphorylation in Tall-1 human T cell line (JAK3); experiment: Cellular JAK3 potency assay: inhibition of IL-2 stimulated pSTAT5 in Tall-1 T cells; format: cell-based; details: IL-2 stimulated pSTAT5, Tall-1 T cells
Summary of the method: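 Tall-1 cells, 45,000 per well, preincubated 1 hour with compound at 37 °C, then stimulated 30 minutes with IL-2 at 300 ng/ml final. pSTAT5 (Tyr694/699) in lysates quantified by AlphaLISA SureFire Ultra. pIC50 derived from inhibition curves, given as mean with SD.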

Tyk2 = Tyk2 (Homo sapiens (Human), UniProt P29597); experiment: Biochemical Tyk2 kinase assay (LanthaScreen)
Chain of Tyk2 (P29597 whole entry): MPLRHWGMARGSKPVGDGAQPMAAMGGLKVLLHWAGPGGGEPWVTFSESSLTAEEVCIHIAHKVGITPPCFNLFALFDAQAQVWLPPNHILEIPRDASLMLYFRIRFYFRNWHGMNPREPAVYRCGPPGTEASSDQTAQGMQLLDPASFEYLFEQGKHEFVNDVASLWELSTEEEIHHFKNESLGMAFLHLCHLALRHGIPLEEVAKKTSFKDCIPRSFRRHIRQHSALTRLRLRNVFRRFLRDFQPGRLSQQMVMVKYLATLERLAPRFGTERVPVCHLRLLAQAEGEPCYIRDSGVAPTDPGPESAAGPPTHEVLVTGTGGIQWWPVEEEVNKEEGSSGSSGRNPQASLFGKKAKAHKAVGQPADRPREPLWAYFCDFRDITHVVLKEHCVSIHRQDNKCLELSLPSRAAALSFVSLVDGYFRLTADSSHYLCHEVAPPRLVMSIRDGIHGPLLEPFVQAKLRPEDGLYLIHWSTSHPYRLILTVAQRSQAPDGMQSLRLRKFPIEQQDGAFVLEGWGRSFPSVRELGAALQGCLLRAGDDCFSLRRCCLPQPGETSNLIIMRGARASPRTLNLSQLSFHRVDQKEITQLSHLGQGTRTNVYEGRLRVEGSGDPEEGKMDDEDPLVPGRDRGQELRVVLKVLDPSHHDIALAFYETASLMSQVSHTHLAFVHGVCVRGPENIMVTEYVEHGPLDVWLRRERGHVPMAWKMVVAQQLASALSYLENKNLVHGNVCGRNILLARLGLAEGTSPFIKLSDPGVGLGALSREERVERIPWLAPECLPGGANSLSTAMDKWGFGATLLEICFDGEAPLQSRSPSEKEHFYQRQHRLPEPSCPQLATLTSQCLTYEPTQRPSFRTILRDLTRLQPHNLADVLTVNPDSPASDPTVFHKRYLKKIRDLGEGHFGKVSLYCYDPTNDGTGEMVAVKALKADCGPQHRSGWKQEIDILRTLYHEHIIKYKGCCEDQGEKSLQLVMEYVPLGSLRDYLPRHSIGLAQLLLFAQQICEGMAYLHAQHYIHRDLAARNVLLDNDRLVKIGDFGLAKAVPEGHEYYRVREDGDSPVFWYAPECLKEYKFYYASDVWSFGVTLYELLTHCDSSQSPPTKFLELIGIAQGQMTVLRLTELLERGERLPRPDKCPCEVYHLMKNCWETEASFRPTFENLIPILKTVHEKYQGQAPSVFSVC
Summary of the method: (§1)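 GST-JAK + GFP-STAT1 peptide, HEPES pH 7.5/MgCl2/EGTA/Brij-35 buffer; cpd preincubation 1 h RT; ATP start, 1 h RT; stop with 10 mM EDTA + 2 nM Tb-anti-pSTAT1; TR-FRET 520/495. 4-parameter IC50 → pKi (Cheng-Prusoff).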

JAK3 = JAK3 (Homo sapiens (Human), UniProt P52333); experiment: Biochemical JAK3 kinase assay (LanthaScreen); details: for JAK3 (pKi)-JAK1 (pKi): selectivity JAK3 over JAK1, difference of pKi
Chain of JAK3 (P52333 whole entry): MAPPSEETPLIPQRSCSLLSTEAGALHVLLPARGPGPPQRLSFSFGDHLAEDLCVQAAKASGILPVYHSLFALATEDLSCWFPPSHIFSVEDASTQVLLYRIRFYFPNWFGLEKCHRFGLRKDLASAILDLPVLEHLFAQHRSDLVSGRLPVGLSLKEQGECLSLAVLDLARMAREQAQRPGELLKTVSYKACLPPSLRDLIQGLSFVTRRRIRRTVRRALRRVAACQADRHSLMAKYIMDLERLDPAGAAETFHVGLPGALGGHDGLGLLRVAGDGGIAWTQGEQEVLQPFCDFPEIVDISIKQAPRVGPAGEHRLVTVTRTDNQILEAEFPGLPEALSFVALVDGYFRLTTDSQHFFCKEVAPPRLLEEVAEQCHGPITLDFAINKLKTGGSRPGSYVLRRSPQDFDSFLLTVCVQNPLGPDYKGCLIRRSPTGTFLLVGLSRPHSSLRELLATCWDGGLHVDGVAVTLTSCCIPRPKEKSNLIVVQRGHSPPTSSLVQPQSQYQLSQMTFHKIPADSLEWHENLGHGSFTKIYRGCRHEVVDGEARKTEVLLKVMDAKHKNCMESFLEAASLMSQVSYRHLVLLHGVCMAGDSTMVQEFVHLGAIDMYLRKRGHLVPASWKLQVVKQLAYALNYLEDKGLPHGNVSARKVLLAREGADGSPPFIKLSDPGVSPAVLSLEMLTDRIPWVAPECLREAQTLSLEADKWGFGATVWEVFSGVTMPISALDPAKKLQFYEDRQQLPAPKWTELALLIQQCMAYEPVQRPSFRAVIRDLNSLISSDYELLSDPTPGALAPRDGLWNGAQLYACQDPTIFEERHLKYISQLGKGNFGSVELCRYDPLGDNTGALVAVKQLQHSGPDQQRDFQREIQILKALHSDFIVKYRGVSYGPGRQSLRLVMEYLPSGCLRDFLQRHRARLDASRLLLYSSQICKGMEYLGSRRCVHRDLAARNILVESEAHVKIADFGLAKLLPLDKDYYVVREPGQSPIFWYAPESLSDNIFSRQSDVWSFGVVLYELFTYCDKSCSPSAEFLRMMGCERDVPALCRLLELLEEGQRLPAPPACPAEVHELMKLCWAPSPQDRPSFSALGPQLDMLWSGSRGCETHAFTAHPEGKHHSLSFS
Summary of the method: as §1

JAK2 = JAK2 (Homo sapiens (Human), UniProt O60674); experiment: Biochemical JAK2 kinase assay (LanthaScreen)
Chain of JAK2 (O60674 whole entry): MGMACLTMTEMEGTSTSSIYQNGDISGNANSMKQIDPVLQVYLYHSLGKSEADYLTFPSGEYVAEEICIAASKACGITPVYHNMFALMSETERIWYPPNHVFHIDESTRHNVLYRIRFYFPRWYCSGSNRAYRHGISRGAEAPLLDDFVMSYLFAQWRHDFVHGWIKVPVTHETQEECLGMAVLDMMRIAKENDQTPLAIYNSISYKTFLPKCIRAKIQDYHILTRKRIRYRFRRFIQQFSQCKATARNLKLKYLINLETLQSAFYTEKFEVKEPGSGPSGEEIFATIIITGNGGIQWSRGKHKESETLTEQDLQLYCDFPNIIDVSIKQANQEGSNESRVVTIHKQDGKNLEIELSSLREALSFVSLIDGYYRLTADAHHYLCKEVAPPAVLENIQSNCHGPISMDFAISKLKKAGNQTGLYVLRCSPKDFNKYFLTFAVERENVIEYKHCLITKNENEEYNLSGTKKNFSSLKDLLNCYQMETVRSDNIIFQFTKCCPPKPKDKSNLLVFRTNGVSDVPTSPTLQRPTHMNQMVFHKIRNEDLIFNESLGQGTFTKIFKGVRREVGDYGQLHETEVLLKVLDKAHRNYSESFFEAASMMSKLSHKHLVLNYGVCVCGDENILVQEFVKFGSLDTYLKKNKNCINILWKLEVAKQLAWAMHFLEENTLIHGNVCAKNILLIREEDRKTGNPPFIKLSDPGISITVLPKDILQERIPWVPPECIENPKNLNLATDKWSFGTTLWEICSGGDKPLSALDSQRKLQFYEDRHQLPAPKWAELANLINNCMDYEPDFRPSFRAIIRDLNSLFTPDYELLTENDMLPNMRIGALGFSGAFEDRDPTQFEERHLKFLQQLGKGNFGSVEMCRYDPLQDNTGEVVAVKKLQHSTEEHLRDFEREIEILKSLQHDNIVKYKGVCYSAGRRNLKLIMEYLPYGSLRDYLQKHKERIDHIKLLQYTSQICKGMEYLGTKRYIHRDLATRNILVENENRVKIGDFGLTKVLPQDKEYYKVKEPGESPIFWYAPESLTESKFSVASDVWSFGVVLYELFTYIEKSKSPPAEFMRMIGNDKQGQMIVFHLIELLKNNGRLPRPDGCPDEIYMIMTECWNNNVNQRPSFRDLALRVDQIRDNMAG
Summary of the method: as §1

JAK1 = JAK1 (Homo sapiens (Human), UniProt P23458); experiment: Biochemical JAK1 kinase assay (LanthaScreen)
Chain of JAK1 (P23458 whole entry): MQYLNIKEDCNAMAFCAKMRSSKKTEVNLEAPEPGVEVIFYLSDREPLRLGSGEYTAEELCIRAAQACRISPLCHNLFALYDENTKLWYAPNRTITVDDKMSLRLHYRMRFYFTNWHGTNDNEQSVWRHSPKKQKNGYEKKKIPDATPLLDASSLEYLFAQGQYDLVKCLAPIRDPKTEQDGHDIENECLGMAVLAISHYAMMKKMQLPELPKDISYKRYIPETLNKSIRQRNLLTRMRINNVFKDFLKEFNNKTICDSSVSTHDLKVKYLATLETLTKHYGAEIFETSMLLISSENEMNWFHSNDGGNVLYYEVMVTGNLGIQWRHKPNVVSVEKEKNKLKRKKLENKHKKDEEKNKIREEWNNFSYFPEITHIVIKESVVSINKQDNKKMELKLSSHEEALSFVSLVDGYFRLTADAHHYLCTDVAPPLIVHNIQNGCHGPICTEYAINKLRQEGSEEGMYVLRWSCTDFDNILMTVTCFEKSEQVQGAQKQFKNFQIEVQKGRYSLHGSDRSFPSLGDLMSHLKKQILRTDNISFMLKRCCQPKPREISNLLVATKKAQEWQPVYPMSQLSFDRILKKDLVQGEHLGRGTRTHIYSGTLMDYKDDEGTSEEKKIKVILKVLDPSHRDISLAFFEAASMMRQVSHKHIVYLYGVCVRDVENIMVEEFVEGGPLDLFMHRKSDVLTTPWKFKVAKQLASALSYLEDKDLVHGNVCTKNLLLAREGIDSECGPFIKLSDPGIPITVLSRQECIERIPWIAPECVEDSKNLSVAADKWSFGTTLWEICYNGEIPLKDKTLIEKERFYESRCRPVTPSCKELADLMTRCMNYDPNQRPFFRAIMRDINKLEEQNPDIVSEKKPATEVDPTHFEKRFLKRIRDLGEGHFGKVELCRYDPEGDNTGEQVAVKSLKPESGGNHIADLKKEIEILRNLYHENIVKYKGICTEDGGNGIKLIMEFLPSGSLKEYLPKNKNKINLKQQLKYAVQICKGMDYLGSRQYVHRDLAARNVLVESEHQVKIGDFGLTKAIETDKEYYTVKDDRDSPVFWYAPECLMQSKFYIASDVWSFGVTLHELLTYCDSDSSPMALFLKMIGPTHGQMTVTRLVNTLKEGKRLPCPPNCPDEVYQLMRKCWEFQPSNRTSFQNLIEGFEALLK
Summary of the method: as §1

Compound | Tall-1 (pIC50) [1] | Tyk 2 (pKi) (Tyk2) | JAK 3 (pKi) (JAK3) | JAK3 (pKi)-JAK1 (pKi) (JAK3) | JAK 2 (pKi) (JAK2) | JAK 1 (pKi) (JAK1)
C=CC(=O)N1CC(C(C)(C)Cn2c(=O)ccc3cnc(Nc4ccc(N5CCN(C(C)=O)CC5)cc4)nc32)C1 [Example 184] | B (B represents a pC50 value between 6.7 (included) and 7.5 (IC50 between 200 nM and 32 nM)) | E (E represents a pKi value of 7 or below (Ki of 100 nM or above)) | A (A represents a pKi value≥10 (Ki≤0.1 nM)) | A (A represents a value of 3 or above) | E (E represents a pKi value of 7 or below (Ki of 100 nM or above)) | E (E represents a pKi value of 7 or below (Ki of 100 nM or above))
C=CC(=O)N1CCN(CCn2c(=O)ccc3cnc(Nc4cnn(-c5ccccc5)c4)nc32)[C@@H](CC)C1 [Example 195] | B (B represents a pC50 value between 6.7 (included) and 7.5 (IC50 between 200 nM and 32 nM)) | E (E represents a pKi value of 7 or below (Ki of 100 nM or above)) | B (B represents pKi value between 9 and 10 (Ki between 1 nM and 0.1 nM)) | A (A represents a value of 3 or above) | E (E represents a pKi value of 7 or below (Ki of 100 nM or above)) | E (E represents a pKi value of 7 or below (Ki of 100 nM or above))
C=CC(=O)N1CCN(C(C)(C)Cn2c(=O)ccc3cnc(Nc4ccc(N5CCN(C(C)=O)CC5)cc4)nc32)CC1 [Example 200] | C (C represents a pIC50 value between 6 and 6.7 (IC50 between 1 μM and 200 nM)) | E (E represents a pKi value of 7 or below (Ki of 100 nM or above)) | C (C represents a pKi value between 8 and 9 (Ki between 10 nM and 1 nM)) | B (B represents a value of 2.5 to 3) | E (E represents a pKi value of 7 or below (Ki of 100 nM or above)) | E (E represents a pKi value of 7 or below (Ki of 100 nM or above))
C=CC(=O)N1CCN(CCn2c(=O)ccc3cnc(Nc4ccc(N5CCN(CC)CC5)cc4)nc32)CC1 [Example 204] | A (A represents a pIC50 value≥7.5 (IC50≤32 nM)) | E (E represents a pKi value of 7 or below (Ki of 100 nM or above)) | A (A represents a pKi value≥10 (Ki≤0.1 nM)) | A (A represents a value of 3 or above) | E (E represents a pKi value of 7 or below (Ki of 100 nM or above)) | E (E represents a pKi value of 7 or below (Ki of 100 nM or above))
C=CC(=O)N1CCN(CCn2c(=O)ccc3cnc(Nc4ccc(N5CCN(S(=O)(=O)N(C)C)CC5)cc4)nc32)CC1 [Example 211] | B (B represents a pC50 value between 6.7 (included) and 7.5 (IC50 between 200 nM and 32 nM)) | E (E represents a pKi value of 7 or below (Ki of 100 nM or above)) | A (A represents a pKi value≥10 (Ki≤0.1 nM)) | A (A represents a value of 3 or above) | E (E represents a pKi value of 7 or below (Ki of 100 nM or above)) | E (E represents a pKi value of 7 or below (Ki of 100 nM or above))
C=CC(=O)N1CCN(CCn2c(=O)ccc3cnc(Nc4ccc(N5CCN(C(=O)CC(C)C)CC5)cc4)nc32)CC1 [Example 212] | B (B represents a pC50 value between 6.7 (included) and 7.5 (IC50 between 200 nM and 32 nM)) | E (E represents a pKi value of 7 or below (Ki of 100 nM or above)) | A (A represents a pKi value≥10 (Ki≤0.1 nM)) | A (A represents a value of 3 or above) | E (E represents a pKi value of 7 or below (Ki of 100 nM or above)) | E (E represents a pKi value of 7 or below (Ki of 100 nM or above))
C=CC(=O)N1CCN(CCn2c(=O)ccc3cnc(Nc4ccc(N5CCN(C(=O)C(C)C)CC5)cc4)nc32)CC1 [Example 213] | B (B represents a pC50 value between 6.7 (included) and 7.5 (IC50 between 200 nM and 32 nM)) | E (E represents a pKi value of 7 or below (Ki of 100 nM or above)) | A (A represents a pKi value≥10 (Ki≤0.1 nM)) | A (A represents a value of 3 or above) | E (E represents a pKi value of 7 or below (Ki of 100 nM or above)) | E (E represents a pKi value of 7 or below (Ki of 100 nM or above))
C=CC(=O)N1CCN(CCn2c(=O)ccc3cnc(Nc4ccc(N5CCN(C(=S)N(C)C)CC5)cc4)nc32)CC1 [Example 214] | B (B represents a pC50 value between 6.7 (included) and 7.5 (IC50 between 200 nM and 32 nM)) | E (E represents a pKi value of 7 or below (Ki of 100 nM or above)) | B (B represents pKi value between 9 and 10 (Ki between 1 nM and 0.1 nM)) | A (A represents a value of 3 or above) | E (E represents a pKi value of 7 or below (Ki of 100 nM or above)) | E (E represents a pKi value of 7 or below (Ki of 100 nM or above))
C=CC(=O)N1CC(CCn2c(=O)ccc3cnc(Nc4cccc(C(C)N5CCN(C(=O)N(C)C)CC5)c4)nc32)C1 (stereo not drawn) [Example 215] | B (B represents a pC50 value between 6.7 (included) and 7.5 (IC50 between 200 nM and 32 nM)) | E (E represents a pKi value of 7 or below (Ki of 100 nM or above)) | B (B represents pKi value between 9 and 10 (Ki between 1 nM and 0.1 nM)) | A (A represents a value of 3 or above) | E (E represents a pKi value of 7 or below (Ki of 100 nM or above)) | E (E represents a pKi value of 7 or below (Ki of 100 nM or above))
C=CC(=O)N1CC(CCn2c(=O)ccc3cnc(Nc4cccc(C(C)N5CCN(C(C)=O)CC5)c4)nc32)C1 (stereo not drawn) [Example 216] | C (C represents a pIC50 value between 6 and 6.7 (IC50 between 1 μM and 200 nM)) | E (E represents a pKi value of 7 or below (Ki of 100 nM or above)) | B (B represents pKi value between 9 and 10 (Ki between 1 nM and 0.1 nM)) | A (A represents a value of 3 or above) | E (E represents a pKi value of 7 or below (Ki of 100 nM or above)) | E (E represents a pKi value of 7 or below (Ki of 100 nM or above))
C=CC(=O)N1CC(CC)(CCn2c(=O)ccc3cnc(Nc4ccc(N5CCN(C)CC5)cc4)nc32)C1 [Example 217] | A (A represents a pIC50 value≥7.5 (IC50≤32 nM)) | E (E represents a pKi value of 7 or below (Ki of 100 nM or above)) | B (B represents pKi value between 9 and 10 (Ki between 1 nM and 0.1 nM)) | A (A represents a value of 3 or above) | D (D represents a pKi value between 7 and 8 (Ki between 100 nM and 10 nM)) | E (E represents a pKi value of 7 or below (Ki of 100 nM or above))
C=CC(=O)N1CCN(CCn2c(=O)ccc3cnc(Nc4ccc(N5CCN(C(C)(C)C)CC5)cc4)nc32)CC1 [Example 219] | A (A represents a pIC50 value≥7.5 (IC50≤32 nM)) | E (E represents a pKi value of 7 or below (Ki of 100 nM or above)) | B (B represents pKi value between 9 and 10 (Ki between 1 nM and 0.1 nM)) | A (A represents a value of 3 or above) | E (E represents a pKi value of 7 or below (Ki of 100 nM or above)) | E (E represents a pKi value of 7 or below (Ki of 100 nM or above))
C=CC(=O)N1CCN(CCn2c(=O)ccc3cnc(Nc4cnn(CCOC(C)C)c4)nc32)[C@@H](CC)C1 [Example 220] | B (B represents a pC50 value between 6.7 (included) and 7.5 (IC50 between 200 nM and 32 nM)) | E (E represents a pKi value of 7 or below (Ki of 100 nM or above)) | B (B represents pKi value between 9 and 10 (Ki between 1 nM and 0.1 nM)) | A (A represents a value of 3 or above) | E (E represents a pKi value of 7 or below (Ki of 100 nM or above)) | E (E represents a pKi value of 7 or below (Ki of 100 nM or above))
